ChEMBL document CHEMBL3885881, “DrugMatrix”

Species on record: Rattus norvegicus
Test: DrugMatrix - Regimen: Daily Repeat
Assay type: toxicity, organism-based, Sprague-Dawley
Set-up: regimen Daily Repeat, gender Male, age 6-8 weeks
Details: in vivo, po, route oral GAVAGE, vehicle 100 % WATER; for ERYTHROCYTE COUNT / HEMATOCRIT / HEMOGLOBIN / LEUKOCYTE COUNT / MEAN CORPUSCULAR HEMOGLOBIN / MEAN CORPUSCULAR HEMOGLOBIN CONCENTRATION / MEAN CORPUSCULAR VOLUME: tissue Blood; for ALANINE AMINOTRANSFERASE / ALBUMIN / ALKALINE PHOSPHATASE / ASPARTATE AMINOTRANSFERASE / BLOOD UREA NITROGEN / CARBON DIOXIDE / CHLORIDE / CHOLESTEROL / CREATINE PHOSPHOKINASE / CREATININE / GLUCOSE / LACTATE DEHYDROGENASE / LIPASE / PHOSPHORUS / POTASSIUM / SODIUM / TOTAL BILIRUBIN / TOTAL PROTEIN / URIC ACID: tissue Plasma
[1] = 0 mg/kg, 72 h, dose level Control, time 3 day
[2] = 0 mg/kg, 120 h, dose level Control, time 5 day
[3] = 70 mg/kg, 72 h, dose level Low, time 3 day
[4] = 70 mg/kg, 120 h, dose level Low, time 5 day

## COc1cc2c(N3CCN(C(=O)Nc4ccc(OC(C)C)cc4)CC3)ncnc2cc1OCCCN1CCCCC1 [TANDUTINIB]
[1]
  ERYTHROCYTE COUNT: 6.09 x10E6/uL
  HEMATOCRIT: 42.62%
  HEMOGLOBIN: 13.07 G/DL
  LEUKOCYTE COUNT: 13.95 x10E3/uL
  MEAN CORPUSCULAR HEMOGLOBIN: 21.47 pg
  MEAN CORPUSCULAR HEMOGLOBIN CONCENTRATION: 30.62 G/DL
  MEAN CORPUSCULAR VOLUME: 70.05 fL
  ALANINE AMINOTRANSFERASE: 47.67 u/L
  ALBUMIN: 3.8 G/DL
  ALKALINE PHOSPHATASE: 369 u/L
  ASPARTATE AMINOTRANSFERASE: 86.17 u/L
  BLOOD UREA NITROGEN: 16.33 mg/dL
  CARBON DIOXIDE: 37.33 mmol/L
  CHLORIDE: 104.83 MEQ/L
  CHOLESTEROL: 79.83 mg/dL
  CREATINE PHOSPHOKINASE: 392.83 u/L
  CREATININE: 0.68 mg/dL
  GLUCOSE: 153.33 mg/dL
  LACTATE DEHYDROGENASE: 426.17 u/L
  LIPASE: 11.67 u/L
  PHOSPHORUS: 11 mg/dL
  POTASSIUM: 6.72 MEQ/L
  SODIUM: 146.67 MEQ/L
  TOTAL BILIRUBIN: 0.55 mg/dL
  TOTAL PROTEIN: 6.32 G/DL
  URIC ACID: 0.0167 mg/dL
[2]
  ERYTHROCYTE COUNT: 6.93 x10E6/uL
  HEMATOCRIT: 46.82%
  HEMOGLOBIN: 14.23 G/DL
  LEUKOCYTE COUNT: 13.43 x10E3/uL
  MEAN CORPUSCULAR HEMOGLOBIN: 20.55 pg
  MEAN CORPUSCULAR HEMOGLOBIN CONCENTRATION: 30.38 G/DL
  MEAN CORPUSCULAR VOLUME: 67.62 fL
  ALANINE AMINOTRANSFERASE: 44.67 u/L
  ALBUMIN: 3.8 G/DL
  ALKALINE PHOSPHATASE: 417.83 u/L
  ASPARTATE AMINOTRANSFERASE: 83 u/L
  BLOOD UREA NITROGEN: 15.33 mg/dL
  CARBON DIOXIDE: 38.83 mmol/L
  CHLORIDE: 98.17 MEQ/L
  CHOLESTEROL: 66.83 mg/dL
  CREATINE PHOSPHOKINASE: 383.17 u/L
  CREATININE: 0.72 mg/dL
  GLUCOSE: 156.5 mg/dL
  LACTATE DEHYDROGENASE: 519.67 u/L
  LIPASE: 4.83 u/L
  PHOSPHORUS: 11.07 mg/dL
  POTASSIUM: 6.03 MEQ/L
  SODIUM: 138 MEQ/L
  TOTAL BILIRUBIN: 0.55 mg/dL
  TOTAL PROTEIN: 6.3 G/DL
  URIC ACID: 0.0833 mg/dL
[3]
  ERYTHROCYTE COUNT: 6.43 x10E6/uL
  HEMATOCRIT: 44.4%
  HEMOGLOBIN: 13.2 G/DL
  LEUKOCYTE COUNT: 8.32 x10E3/uL
  MEAN CORPUSCULAR HEMOGLOBIN: 20.5 pg
  MEAN CORPUSCULAR HEMOGLOBIN CONCENTRATION: 29.63 G/DL
  MEAN CORPUSCULAR VOLUME: 69.13 fL
  ALANINE AMINOTRANSFERASE: 47 u/L
  ALBUMIN: 3.87 G/DL
  ALKALINE PHOSPHATASE: 436.67 u/L
  ASPARTATE AMINOTRANSFERASE: 80.67 u/L
  BLOOD UREA NITROGEN: 15.33 mg/dL
  CARBON DIOXIDE: 37.33 mmol/L
  CHLORIDE: 107.67 MEQ/L
  CHOLESTEROL: 84.67 mg/dL
  CREATINE PHOSPHOKINASE: 198 u/L
  CREATININE: 0.67 mg/dL
  GLUCOSE: 163.33 mg/dL
  LACTATE DEHYDROGENASE: 277.33 u/L
  LIPASE: 14.33 u/L
  PHOSPHORUS: 9.63 mg/dL
  POTASSIUM: 6.33 MEQ/L
  SODIUM: 149.67 MEQ/L
  TOTAL BILIRUBIN: 0.47 mg/dL
  TOTAL PROTEIN: 6.2 G/DL
  URIC ACID: 0.0333 mg/dL
[4]
  ERYTHROCYTE COUNT: 6.62 x10E6/uL
  HEMATOCRIT: 44.77%
  HEMOGLOBIN: 13.67 G/DL
  LEUKOCYTE COUNT: 11.49 x10E3/uL
  MEAN CORPUSCULAR HEMOGLOBIN: 20.67 pg
  MEAN CORPUSCULAR HEMOGLOBIN CONCENTRATION: 30.6 G/DL
  MEAN CORPUSCULAR VOLUME: 67.7 fL
  ALANINE AMINOTRANSFERASE: 36.33 u/L
  ALBUMIN: 3.8 G/DL
  ALKALINE PHOSPHATASE: 323.33 u/L
  ASPARTATE AMINOTRANSFERASE: 69 u/L
  BLOOD UREA NITROGEN: 14.67 mg/dL
  CARBON DIOXIDE: 34.67 mmol/L
  CHLORIDE: 100.67 MEQ/L
  CHOLESTEROL: 73 mg/dL
  CREATINE PHOSPHOKINASE: 199 u/L
  CREATININE: 0.67 mg/dL
  GLUCOSE: 164.33 mg/dL
  LACTATE DEHYDROGENASE: 327 u/L
  LIPASE: 5.67 u/L
  PHOSPHORUS: 11.33 mg/dL
  POTASSIUM: 5.83 MEQ/L
  SODIUM: 139.67 MEQ/L
  TOTAL BILIRUBIN: 0.43 mg/dL
  TOTAL PROTEIN: 6.17 G/DL
  URIC ACID: 0.27 mg/dL
